The text below walks through data of publication PMC6279743, “A small molecule ApoE4-targeted therapeutic candidate that normalizes sirtuin 1 levels and improves cognition in an Alzheimer’s disease mouse model” (Scientific Reports, 2018).

Molecules are shown by their SMILES. “Also recorded” adds a separate entry of the source. Like-named read-outs stand apart in the source and are kept apart here.

Data set [1] can be described thus: Parallel Artificial Membrane Permeability Assay (PAMPA; IAM column). The class given is in vitro ADME. Particulars: for retention time (Tr) in PAMPA: IAM.PC.DD2 column, acetonitrile:PBS (pH 5.6) 35:65; for KIAM: KIAM = (Tr-T0)/T0, T0 = 1.24 min; for (KIAM/MW^4) * 10^−(10): MW 255.74 g/mol. On the procedure:
We used L(+)tartaric acid to isolate the L-enantiomer salt and D(-) tartaric acid to isolate the D-enantiomer salt, followed by neutralization of the salt with NaOH and re-crystallization to obtain the enantiomers. Enantiomer abundance (Supplementary Fig. S4) was determined by HPLC using a Chiralpak IB column. Isopropanol (0.2% diethylamine)/hexanes was used for gradient elution with 5–50% isopropanol (0.2% diethylamine) for 11 min, a Chiralpak IB column, and with sample (1 μL, 1.25 mg/mL) injection, 220 nm wavelength detection, and a flow rate of 1 mL/min. […] The L-alanine analog co-elutes with enantiomer-1 while the D-alanine analog co-elutes with enantiomer-2. Analysis of the enantiomers and A03 in the Parallel Artificial Membrane Permeability Assay (PAMPA) was performed and is described in Supplementary Methods. […]
PAMPA. An IAM.PC.DD2 Regis Technologies analytical (10 cm x 4.6 mm) column wherein phospholipid is bonded on 10 μm, 300 Å, spherical aminopropyl silica and end capped with C10 and C3 amides was used to determine membrane permeability of A03, E1 and E2. An isocratic method was used with a mobile phase comprising acetonitrile:PBS (pH 5.6) equal to 35:65, an injection volume of 5 µL, and a flow rate of 1 mL/min. The parameters determined are Tr = retention time of compound; KIAM= (Tr-T0)/T0; T0= is the delay time of the column, determined by use of 100 µg/mL citric acid) and was T0= 1.24 min; and (KIAM/MW4)*10-(10). The molecular weight of all three compounds was 255.74 g/mol. […]
Supplementary Fig. S1. […] (a) Transient transfection with either
ApoE3 or E4 decreased SirT1 levels as compared to empty vector (Pc/DMSO), but the decrease was greater with […]

The nature of data set [2]: Brain compound levels 2 hours after the last dose in efficacy studies. The class given is in vivo, mice. To be noted: pilot study, SQ 10 mg/kg/day, 28 days, n = 8. On the procedure: Mice were euthanized and blood/tissues collected 2 hrs after dosing on day 28 by the method described above for PK. Frontal and parietal cortices (FrCx and PtCx, respectively), as well as the remaining brain tissue, from individual mice were dissected, snap frozen on dry ice, and stored at −80 °C. Plasma samples and the brain tissue minus the FrCx and PtCx (the ‘rest’) from all compound-treated mice were sent to IAS for compound level analysis as described above.
Mice were euthanized and blood/tissues collected 2 hrs after dosing on Day 25 by the method described above for PK. FrCx, PtCx, and hippocampi (Hip) were collected from all mice for SirT1 and sAPPα level determination by AlphaLISA. Protein concentration was determined using a Bradford protein assay. Brain and plasma levels of A03 were determined at IAS.
Mice were euthanized and blood/tissues collected 2 hrs after dosing on Day 56 by the method described above for PK. Hip and FrCx were collected for analysis of SirT1, sAPPα, and Aβ1-42 levels by AlphaLISA. For Aβ1-42 the Perkin Elmer kit AL276C was used. Protein concentrations were determined using the Bradford protein assay. The sAPPα and sAPPβ AlphaLISAs were similar to the SirT1 AlphaLISA (see Supplementary Fig. S3) but the former uses anti-sAPPα antibody AF1168 and 2B3-biotinylated antibodies and the latter an anti-sAPPβ antibody (IBL Cat. #18957) and an anti-N-terminal APP antibody (R&D Systems AF1168) instead of anti-SirT1 antibodies. Brain tissue and plasma were sent to IAS for A03 level analysis.

A short description of data set [3]: Pharmacokinetics after oral delivery in mice. The format is in vivo. Particulars: oral 10 mg/kg; for Tmax / AUC: mouse; for Tmax: brain, n = 1 per time point; for AUC: plasma; for AUC / AUC brain: 1-8 hours. On the procedure:
All in vivo experiments described were carried out in strict accordance with good animal practice according to NIH recommendations. All procedures for animal use were approved by the Animal Research Committee (ARC) at UCLA and under an approved ARC protocol. Pharmacokinetic (PK) analysis[68]–[70] consisted of oral delivery of compounds (10 mg/Kg) to individual mice followed by euthanasia at 1, 2, 4, 6, and 8 hours post-dose by ketamine/xylazine over-anesthesia, blood collection by cardiac puncture, and transcardial saline perfusion. Whole blood was centrifuged at 5000 rpm for 10 min. in a 5 °C centrifuge to isolate plasma and the plasma stored at −20 °C before analysis. Whole brains were collected, dissected down the midline, snap frozen on dry ice, and stored at −80 °C before analysis. The levels of the compounds in both plasma and brain tissue were determined by a quantitative LC/MS/MS methodology at Integrated Analytical Solutions (IAS, Berkeley, CA). Plasma samples were precipitated with an acetonitrile: methanol (1:1) cocktail containing an internal standard. Brain samples were homogenized directly in ethyl acetate by the liquid-liquid method. The resulting supernatant was evaporated to dryness and subjected to LC/MS/MS analysis. The Tmax, Cmax, brain-to-plasma ratios and brain levels were then calculated using PK Solutions software (SummitPK).

Data set [4] concerns SirT1 levels in N2a-E4 cells. In words: SirT1 AlphaLISA in N2a-E4 cells (HTS, secondary and dose-response testing). The class given is cell-based, murine. Particulars: for SirT1 increase, racemate vs enantiomers: 5 and 50 μM, n = 3 wells; for Dose-response increase in SirT1 in secondary testing: N2a-E4 cells, 1, 5 and 10 μM; for SirT1 level in HTS: 24 hrs, NIH Clinical Collection screen, A03 5 μM as positive control. Here is the method: For HTS we tested a portion of the UCLA compound library (10 plates) including the NIH Clinical Collection library (3 plates). Complete medium (25 µL) was added to each well of 384-well plates, then library compounds were added (250 nL) followed by a suspension of 4 × 10^5 cells/mL murine neuroblastoma N2a cells (25 μL) stably transfected with ApoE4 (N2a-E4). After incubation of the N2a-E4 cells with compounds for 24 hrs at 37 °C and 5% CO2, all but ~6 μL of medium were removed and AlphaLISA Lysis Buffer complemented with HALT protease/phosphatase inhibitor (20 μL, 1X final) was added to each well. To maximize lysis, the plates were frozen at −80 °C. For the AlphaLISA, lysates were thawed and vortexed for 1 min at 3000 rpm.
The AlphaLISA comprises streptavidin donor beads, biotinylated anti-SirT1 N-terminal antibody (19A7AB4), and acceptor beads conjugated to the anti-SirT1 C-terminal antibody (1F3); when the target protein is bound by both antibodies, the beads are in close enough proximity for a transfer of ^1O2 and emission of a detectable signal (Supplementary Fig. S3). For the AlphaLISA, a 384-proxy plate was preloaded with AlphaLISA buffer (2 µL, 1X) with HALT (1X), then cell lysate (2 μL) was transferred to the proxy plate followed by the antibody-mix (2 μL). After incubation at room temperature for 1 hr, the donor bead mixture was added (2 µL) and incubated for an additional 30 min. The plates were then read in an Envision plate reader. All points are one replicate. The standard curve is generated by serial dilution of recombinant SirT1 to assess the linear range of the assay; study samples undergo serial dilution as well. We use A03 as a positive control in the HTS assay. The Z-value, while not ideal, was <1 for the assay (Supplementary Fig. S3).
Compound in medium (50 µL, 2X) was loaded into a 96-well plate, then 4 × 10^4 cells were added to each well; 24 hrs later the medium was removed and cells lysed. Lysate protein concentration was determined using the Bradford assay according to the manufacturer’s instructions. SirT1 was determined in lysates using the SirT1 AlphaLISA as described above.

The nature of data set [5]: Pharmacokinetics after subcutaneous (SQ) injection in mice. The class given is in vivo. To be noted: mouse, mice, SQ 10 mg/kg; for Cmax: brain, n = 1, read-out: Cmax in brain.
In a further data set the test system is humans. Also on record: method as in PMID 22616762. Particulars: cited from earlier work.
[6] abbreviates: secondary assay, N2a-E4 cells, n = 6 wells.

On to `C[C@H](N)C(=O)OC(C)(C)Cc1ccc(Cl)cc1` [E1], for which, in data set [1], the “retention time (Tr) in PAMPA” value worked out at 3.3, the KIAM amounted to 1.66 and the “(KIAM/MW^4) * 10^−(10)” value is 3.88. In addition, the “Brain levels 2 hours after the last dose, E1 vs A03” value in data set [2] is reported as “slightly lower”. In data set [3], the time to peak (Tmax) was 1 h, the AUC came out at 86 ng·h/mL and the AUC brain was determined as 850 ng·h/g. In addition, in data set [4] (N2a-E4 cells), the “SirT1 increase, racemate vs enantiomers” value is reported as “more effective in increasing SirT1 in vitro compared to the optical antipode E2; also recorded: increase SirT1 in N2a-E4 with high significance”. For the same compound, the Cmax in data set [5] (sc) is around 5600 ng/g. The Cmax in data set [5] (subcutaneous) was around 5800 ng/g. In addition, the AUC in data set [5] (plasma, sc) turned out to be 657 ng·h/mL.

On to `C[C@@H](N)C(=O)OC(C)(C)Cc1ccc(Cl)cc1` [E2], for which, in data set [1], the “retention time (Tr) in PAMPA” value amounted to 3.31, the KIAM is given as 1.67 and the “(KIAM/MW^4) * 10^−(10)” value amounted to 3.90. In data set [3], the Tmax worked out at 1 h, the exposure (AUC) was found to be 104 ng·h/mL and the AUC brain was 806 ng·h/g. For the same compound, the “SirT1 increase, racemate vs enantiomers” value in data set [4] (N2a-E4 cells) is listed as “shows lower potency”.

Take `Cc1nc(-c2cccnc2)sc1C(=O)Nc1ccccc1-c1cn2c(CN3CCOCC3)csc2n1` [SRT2104]: the “Tolerability after single and multiple oral dosing” value with humans is on record as “well tolerated”.

As for `CNCCC(Oc1ccc(C(F)(F)F)cc1)c1ccccc1` (centres unmarked) [fluoxetine, reference compound], the “Dose-response increase in SirT1 in secondary testing” value in data set [4] was “neither fluoxetine nor memantine (Fig. 3a) elicited a dose-response increase in SirT1”. Moreover, the “SirT1 level in HTS” value in data set [4] (N2a-E4 cells) is on record as “neither fluoxetine nor memantine enhanced SirT1”. Moreover, the “SirT1 increase vs DMSO control at 1 μM” value in data set [4] (setting [6]) is “only A03 and memantine at 1 μM elicited modest but significant increases”.

In the case of `CC12CC3CC(C)(C1)CC(N)(C3)C2` [memantine, reference compound], the “Dose-response increase in SirT1 in secondary testing” value in data set [4] is given as “neither fluoxetine nor memantine (Fig. 3a) elicited a dose-response increase in SirT1”. In addition, the “SirT1 level in HTS” value in data set [4] (N2a-E4 cells) is given as “neither fluoxetine nor memantine enhanced SirT1”. Besides, the “SirT1 increase vs DMSO control at 1 μM” value in data set [4] (setting [6]) is reported as “modest but significant increases”. Moreover, the “SirT1 increase vs DMSO control at 5 and 10 μM” value in data set [4] (secondary assay, N2a-E4 cells, 5 and 10 μM, n = 6 wells) is given as “not at 5 or 10 μM”.
